Data as given in patent US20250222120A1, “SYNTHESIS OF NOVEL SMALL MOLECULE CARM1 DEGRADERS, COMPOUNDS FORMED THEREBY, AND PHARMACEUTICAL COMPOSITIONS CONTAINING THEM” (Wisconsin Alumni Research Foundation, priority 2024, published 2025).

Key:
[1] = tested on: MCF7 cells; test: Global quantitative proteomic analysis of MCF7 cells by mass spectrometry; type: cell-based, Homo sapiens; details: 25 nM, 4 h, two-fold cutoff, p-value ≤0.05, 3491 proteins quantified
Procedure: Sample preparation for global proteomics analysis. Sample preparation is similar to the previous report (Ma et al. “Strategy Based on Deglycosylation, Multiprotease, and Hydrophilic Interaction Chromatography for Large-Scale Profiling of Protein Methylation” Anal. Chem. 2017, 89 (23), 12909-12917). Briefly, treated MCF7 cells were harvested by washing with PBS buffer (Gibco, pH 7.4) and lysed in RIPA buffer supplemented with protease inhibitors for 20 min, then protein concentration was determined using a BCA Protein Assay Kit (Thermo Pierce, Rockford, IL) per manufacturer instructions. […] The concentrations of the peptide mixture were measured by peptide assay (Thermo Fisher Scientific). […]
LC-MS/MS data acquisition. Samples were analyzed on an Orbitrap Fusion Lumos Tribrid mass spectrometer (Thermo Fisher Scientific) coupled to a Dionex UltiMate 3000 UPLC system. […]
Data analysis. Protein identification and quantification by MaxQuant (version 1.5.3.8) based database searching, using the integrated Andromeda search engine with FDR <1% at peptide and protein levels. […] For label-free protein quantification (LFQ), the MaxQuant LFQ algorithm was used to quantitate the MS signals, and the proteins' intensities were represented in LFQintesnit (Schaab et al. “Analysis of High Accuracy, Quantitative Proteomics Data in the MaxQB Database” Mol. Cell. Proteomics 2012, 11 (3), M111.014068). […]

[2] = target: T1, CARM1 (Homo sapiens, UniProt Q86X55); test: CARM1 degradation by western blot in MCF7 cells; type: cell-based; design: Cell lysates were collected and the CARM1 levels were detected by western blots; endogenous in cells; host or cells: MCF7
T1 sequence (Q86X55 1-608): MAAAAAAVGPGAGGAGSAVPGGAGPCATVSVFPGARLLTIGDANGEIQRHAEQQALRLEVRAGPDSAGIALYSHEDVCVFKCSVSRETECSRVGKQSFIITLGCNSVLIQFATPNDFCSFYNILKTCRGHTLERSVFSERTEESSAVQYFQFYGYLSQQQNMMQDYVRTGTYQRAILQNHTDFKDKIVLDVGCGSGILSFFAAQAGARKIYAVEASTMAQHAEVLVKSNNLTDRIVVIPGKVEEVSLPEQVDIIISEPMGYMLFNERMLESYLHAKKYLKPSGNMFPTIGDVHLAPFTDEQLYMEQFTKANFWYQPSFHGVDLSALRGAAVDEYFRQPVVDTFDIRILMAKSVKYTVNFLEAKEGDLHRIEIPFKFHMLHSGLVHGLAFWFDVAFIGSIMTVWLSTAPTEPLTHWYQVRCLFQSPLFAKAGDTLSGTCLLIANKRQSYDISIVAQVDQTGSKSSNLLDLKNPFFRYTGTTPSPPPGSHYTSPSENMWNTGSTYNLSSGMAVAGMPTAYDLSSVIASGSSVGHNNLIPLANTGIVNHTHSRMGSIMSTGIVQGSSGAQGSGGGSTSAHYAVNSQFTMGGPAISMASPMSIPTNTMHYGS
Procedure: Based on the structure of TPVC3, CARM1 degraders with stable and flexible alkyl linkages 2a-e were designed and synthesized. Degrader 2b bears the same linker length as TPVC3, while 2a has one less carbon. However, we also changed the hydrolytic labile C═N double bond, which is part of the acylhydrazone motif, in TPVC3 to a C—C bond in compound 2b. This change may influence the required optimal linker length. […] Western blot assays were performed to evaluate the CARM1 degradation activity of the compounds after treating MCF7 cells with these degraders at two concentrations (0.5 and 1.0 μM) for 24 h. […] It has one less carbon atom than 2a in terms of length. […] It has the same linker length as 2d.
The treatment dose and time were determined based on time-course and dose titration experiments (FIG. 4B-4C).
Western Blot Assay. Cells were harvested and washed with Dulbecco's phosphate-buffered saline (PBS), then lysed with 1×RIPA lysis buffer (50 mM Tris pH 7.5, 150 mM NaCl, 1% NP-40, 0.5% sodium deoxycholate, and 0.1% sodium dodecyl sulfate) supplemented with 1 mM phenylmethylsulfonyl fluoride, 10 μg/mL aprotinin, 1 μM leupeptin, and 10 μg/mL pepstatin on ice for 20 min. The supernatant was collected after spinning down at 15000 RPM at 4 degrees Celsius for 10 min. The concentration of whole lysates was quantified using a Bradford assay. 50-75 μg of cell lysates was boiled in 4× Laemmli Loading Dye and boiled at 100 degrees Celsius for 10 min. 25 μg were run in 8% SDS-PAGE gels and transferred to nitrocellulose membranes. Blots were blocked in 5% skim milk in PBST [PBS and 0.1% Tween 20] for 45 min, then incubated with primary antibodies at 4 degrees Celsius overnight. Blots were washed in PBST for 30 min, then incubated with horseradish peroxidase-linked secondary antibodies (Jackson ImmunoResearch) for 1 hr. Afterwards, blots were washed in PBST for 15-30 min, then treated with chemiluminescent ECL reagent and imaged with the ChemiDoc Imaging System (Bio-Rad) or Azure 600 (Azure Biosystems). Expression levels of the indicated proteins were probed by the following antibodies: anti-CARM1, anti-me-BAF155, anti-me-PABP1, anti-PABP1,^7 anti-BAF155 (D7F8S, Cell Signaling Technology), anti-PRMT1 (Bethyl), anti-PRMT6 (D-5, Santa Cruz Biotechnology), anti-β-Actin (ABclonal Technology, Sigma-Aldrich), anti-Hsp90 (H-114, Santa Cruz Biotechnology).

[3] = tested on: BAF155 me2a; test: BAF155 me2a level in BT474 cells, western blot; type: cell-based; details: 10 μM, after 48 h
From the text: (§1) FIGS. 7A-7F. […] Cell lysates were collected and CARM1, methyl-BAF155, total BAF155, methyl-PABP1, and total PABP1 levels were detected by Western blot. […] Cell lysates were collected and CARM1, methyl-BAF155, total BAF155 levels were detected by Western blot. […] Cell proliferation rate normalized to day 0 was plotted. […] Migrated cells were stained with 1% crystal violet and the percentage of migrated cells were plotted. Data mean±s.d. ***. P≤0.001.
(§2) Western Blot Assay. Cells were harvested and washed with Dulbecco's phosphate-buffered saline (PBS), then lysed with 1×RIPA lysis buffer (50 mM Tris pH 7.5, 150 mM NaCl, 1% NP-40, 0.5% sodium deoxycholate, and 0.1% sodium dodecyl sulfate) supplemented with 1 mM phenylmethylsulfonyl fluoride, 10 μg/mL aprotinin, 1 μM leupeptin, and 10 μg/mL pepstatin on ice for 20 min. The supernatant was collected after spinning down at 15000 RPM at 4 degrees Celsius for 10 min. The concentration of whole lysates was quantified using a Bradford assay. 50-75 μg of cell lysates was boiled in 4× Laemmli Loading Dye and boiled at 100 degrees Celsius for 10 min. 25 μg were run in 8% SDS-PAGE gels and transferred to nitrocellulose membranes. Blots were blocked in 5% skim milk in PBST [PBS and 0.1% Tween 20] for 45 min, then incubated with primary antibodies at 4 degrees Celsius overnight. […]

[4] = tested on: BAF155 me2a; test: BAF155 me2a level in MDA-MB-231 cells, western blot; type: cell-based; details: 10 μM, after 48 h
From the text: as §1, §2

[5] = tested on: MDA-MB-231 cells; test: Transwell migration assay, MDA-MB-231 cells; type: cell-based; details: 10 μM, transwell, 20 h
Procedure: Transwell Migration Assay. Cells were harvested and washed in serum-free DMEM. The wells of a 24-well plate were filled with 800 μL of DMEM with 10% FBS. Transwell inserts with […] pore size were then added to the wells with DMEM. Cells were resuspended in serum-free DMEM, then 1×10^5 cells in 200 μL were added to the upper chambers. Drug treatments were added to the lower chambers, then incubated for 20 h at 37° C. The cells on the upper surface were removed with cotton swabs. Migratory cells were fixed in 3.7% formaldehyde at room temperature, followed by 100% methanol at −20° C. Fixed cells were stained with 1% crystal violet in 20% methanol for 30 min. The migration area was quantified from five independent fields of view of the lower surface of the membrane under a microscope.

Row | CARM1 degradation by negative control [2] | SMILES | Number of significantly changed proteins compared to the DMSO group [1] | BAF155 me2a level [3] | BAF155 me2a level [4] | Cell migration [5]
1 | No CARM1 degradation was observed | COCCN1CCC(c2cc(CN(C)C(=O)c3cccc(Oc4ccc(OCC(=O)N5CCC(CN6CCC(CN7CCN(CC(=O)N[C@H](C(=O)N8C[C@H](O)C[C@H]8C(=O)N[C@@H](C)c8ccc(-c9scnc9C)cc8)C(C)(C)C)CC7)CC6)CC5)cc4)c3)ccn2)CC1 [Compound 3bN, (2S,4R)-4-hydroxy-1-((S)-2-(2-(4-((1-((1-(2-(4-(3-(((2-(1-(2-methoxyethyl)piperidin-4-yl)pyridin-4-yl)methyl)(methyl)carbamoyl)phenoxy)phenoxy)acetyl)piperidin-4-yl)methyl)piperidin-4-yl)methyl)piperazin-1-yl)acetamido)-3,3-dimethylbutanoyl)-N—((S)-1-(4-(4-methylthiazol-5-yl)phenyl)ethyl)pyrrolidine-2-carboxamide] | 45 | – | – | –
2 | – | CNCCN1CCC(c2cc(CN(C)C(=O)c3cccc(Oc4ccccc4)c3)ccn2)CC1 [TP-064, reference compound] | – | decrease of BAF155 me2a level was observed | decrease of BAF155 me2a level was observed | inhibited cell migration at a similar level
